The values that follow come from patent US10543132B2, “Absorbent article with blood modifying agent” (UNICHARM CORPORATION, priority 2011, dated 2020).

For series [1] the following is noted: at 20° C.; cited from earlier work.
On series [2], the source says:
As used herein, the term “solubility” in regard to water solubility includes cases where the sample completely dissolves in deionized water to form a homogeneous mixture, and cases where the sample is completely emulsified. As used herein, “completely” means that no mass of the sample remains in the deionized water.

Series [3] in a line: Surface tension of blood containing blood modifying agent, pendant drop method (Example 6). As to conditions: sheep defibrinated blood; amount 0.10 mass %; 35 ° C.; without agent 62.1. The procedure: The surface tension of blood containing a blood modifying agent was measured by the pendant drop method, using a Drop Master500 contact angle meter by Kyowa Interface Science Co., Ltd. The surface tension was measured after adding a prescribed amount of blood modifying agent to sheep defibrinated blood, and thoroughly shaking. The measurement was accomplished automatically with a device, and the […] γ was determined by the following formula (see FIG. 4). γ=g×ρ×(de)^2×1/H The density ρ was measured at the temperatures listed in Table 5, according to JIS K 2249-1995, “Density test methods and density/mass/volume conversion tables”, “5. Vibrating density test method”. The measurement was accomplished using a DA-505 by Kyoto Electronics Co., Ltd.

`CCCCC(=O)CCCC` [5-nonanone]: in series [1], the vapor pressure result was “about 230 Pa”.
On to `CC(C)CCCCCCCCCCCCCCCOC(=O)CC(O)C(=O)OCCCCCCCCCCCCCCCC(C)C` (stereo not shown) [Diisostearyl malate, Diisostearyl Malate], for which, in series [2], the “Water solubility (g)” value is listed as 20< g.
For the molecule `CCCCCCCCCCCCOC(=O)CCCCCCCCCCC` [ELECTOL WE20, Ester of dodecanoic acid (C12) and dodecyl alcohol (C12)], the “Surface tension (mN/m)” value in series [3] was 58.8 mN/m.
Take `CCCCC(CC)C(=O)OCC(C)(C)COC(=O)C(CC)CCCC` (stereo not shown) [H-208BRS, Neopentylglycol di-2-ethylhexanoate]: the “Water solubility” value in series [2] is on record as less than 0.05 g.
For the molecule `CCCCC(CC)C(=O)OCC(COC(=O)C(CC)CCCC)OC(=O)C(CC)CCCC` (stereo not shown) [PANACET 800B], in series [2], the “Water solubility” value is on record as less than 0.05 g.
Still for that read-out and setting: the same measure for `CCCCCCCC(=O)OCC(COC(=O)CCCCCCC)OC(=O)CCCCCCC` [PANACET 800]: less than 0.05 g.
Take `CCCCOC(=O)CC(CC(=O)OCCCC)(OC(C)=O)C(=O)OCCCC` [Tributyl O-acetylcitrate, Tributyl O-Acetylcitrate]: in series [2], the “Water solubility” value is listed as less than 0.05 g.
